Laboratory results published in patent US11234960B2, “Compositions and methods for improving mitochondrial function and treating neurodegenerative diseases and cognitive disorders” (Amazentis SA, priority 2010, dated 2022).

Assays:
HFD-fed C57BL6/J mice = assay: Indirect calorimetry (CLAMS) in HFD-fed mice; type: in vivo; settings: for respiratory exchange ratio (RER): HFD-fed mice (FIGS. 22A, 22B); for energy expenditure (oxygen consumption, VO2): HFD-fed mice, 8 weeks after initiation of treatment (FIGS. 20A, 20B)
Procedure: Mice in different treatment groups were administered (i) urolithin A mixed with food (food admix) to reach a dosing of 55 mg/kg body weight/day (mkd); (ii) ellagic acid mixed with food (food admix) to reach a dosing of 75 mkd; (iii) punicalagin (gavage) to reach a dosing of 90 mkd; or (iv) pomegranate extract (PE) (gavage) to reach a dosing of 140 mkd of total polyphenols. […] For animals treated by gavage, gavage was performed daily (7 days/week) between 8:00 and 10:00 a.m.; compounds were mixed with saline solution (0.9% NaCl) and provided at a final volume of 5 mL/kg of body weight.

[1] = system: maternally separated mice; assay: Rotarod motor learning in early-life stress mice; type: in vivo; settings: early-life stressed mice, 90 mg/kg/day (FIG. 44)
Procedure: (§1) At postnatal day 1, pups were culled to have 6 pups per mother. From postnatal day 1 to 14, unpredictable maternal separation (MS) of a period of 3 hours daily was carried out. Maternal separation was performed at random times (from 8 am to 2 pm) to avoid the habituation of the mother to the procedure. The protocol consisted of removing pups from their mother to another cage at room temperature for a 3 hour period, after which the pups were returned to their original nest. These groups are denoted as early-life stress in the figures. A control group of dam/pups was left undisturbed and is denoted in the figures as normal.
(§2) One week after maternal separation mice were separated into two groups. One control group received the standard mouse chow diet (Untreated), while the other group received the ellagitannin punicalagin admixed into the food and designed to deliver a dose of 90 mg/kg/day to the mice. Treatment with the diet began 1 week after the termination of the maternal separation treatment. […]
To measure the effects of pomegranate-derived compounds on the negative cognitive impacts of maternal separation, effects on motor learning were assayed using the rotarod behavioral assay. […] The latency to fall was measured with a cutoff time of 300 sec. […]

[2] = system: maternally separated mice; assay: Elevated O-maze in early-life stress mice; type: in vivo; settings: 90 mg/kg/day in food (FIG. 40)
Procedure: as §1, §2
To examine the effect of early life stress, mice were placed at the entrance of one of the areas of the maze with the 5 cm walls, with the nose facing the closed arm, and were allowed to explore the EOM for 5 min. […] The time spent in each arm (closed versus open) was calculated, with an entry into the arm only being considered to have occurred when the animal placed all four paws in the arm.

[3] = system: C57BL6/J mice fed standard chow diet; assay: Indirect calorimetry (CLAMS) in standard chow diet fed mice; type: in vivo; settings: for respiratory exchange ratio (RER): chow diet fed mice (FIGS. 21A, 21B); for energy expenditure (oxygen consumption, VO2): standard chow-fed mice, 2 weeks of treatment (FIGS. 19A, 19B)
Procedure: Mice in different treatment groups were administered (i) urolithin A mixed with food (food admix) to reach a dosing of 55 mg/kg body weight/day (mkd); (ii) ellagic acid mixed with food (food admix) to reach a dosing of 75 mkd; (iii) punicalagin (gavage) to reach a dosing of 90 mkd; or (iv) pomegranate extract (PE) (gavage) to reach a dosing of 140 mkd of total polyphenols. A typical pomegranate extract used in these experiments had the following composition: polyphenols, 140 mkd; punicalagin, 13.1 mkd; and ellagic acid, 13.2 mkd. For animals treated by gavage, gavage was performed daily (7 days/week) between 8:00 and 10:00 a.m.; compounds were mixed with saline solution (0.9% NaCl) and provided at a final volume of 5 mL/kg of body weight. Mice in high-fat control groups were fed with the same diet as the experimental animals. Mice in corresponding different control groups were administered either high-fat diet alone or high-fat diet plus daily gavage with vehicle (saline). Another control group of mice were fed standard chow diet alone.
Male C57BL6/J mice were grouped and treated as described in Example 7. In addition, however, basal energy expenditure of mice was measured by indirect calorimetry oxygen consumption, carbon dioxide production, and respiratory exchange ratio), 8 weeks after the initiation of treatment for the HFD-fed mice and 2 weeks after the initiation of treatment for standard show diet-fed mice, using the Comprehensive Laboratory Animal Monitoring System (CLAMS; Columbus Instruments, Columbus, Ohio, USA). Animals were first acclimatized for 22 h to CLAMS cages (room temperature 22° C.±1° C.) starting between 11 to 12 am. Then measurement was performed for at least 20 h in the same condition. Measurement included an entire dark cycle. Parameters measured during CLAMS were the following: (i) Oxygen consumption (VO2 in mL/kg/h): VO2 is directly correlated to energy expenditure; (ii) Carbon dioxide production (VCO2 in mL/kg/h); and (iii) Respiratory Exchange Ratio (RER): VCO2/VO2: RER is an indicator of the use of energy substrate. In a steady state, RER is equivalent to the Respiratory Quotient (RQ). Pure carbohydrate use gives RER=1, whereas pure fat burning yields an RER=0.7. A mixed diet gives a RER=0.85.
As stated above, in addition to oxygen consumption, indirect calorimetry also monitors carbon dioxide production. The ratio between carbon dioxide production (VCO2) and oxygen consumption (VO2) is called Respiratory Exchange Ratio (RER). RER is an excellent indicator of the use of energy substrates. In a steady state, RER is equivalent to the Respiratory Quotient (RQ). […]

[4] = system: AMP-activated protein kinase (AMPK); assay: AMPK phosphorylation (Western blot) in C2C12 myotubes; type: cell-based; settings: 1 hr, 50 μM, relative to control treated cells (FIG. 5A)
Procedure: C2C12 myoblasts were differentiated to myotubes by serum deprivation for 4 days (Canto et al. (2009) Nature. 458:1056-60). Myotubes were incubated for 1 hr with resveratrol (RSV), which served as a positive control, or ellagic acid (EA) or urolithin A (UL) at a final concentration of 50 μM (all dissolved in DMSO, final concentration 0.1%). DMSO was used as a control (final concentration of DMSO: 0.1%). At the end of the treatment, cells were washed 3 times with PBS, and AMP-activated protein kinase (AMPK) was assessed by Western blot. Following compound treatment, C2C12 cells were lysed in buffer containing phosphatase inhibitors, and protein concentration was determined using a standard Bradford assay. The equivalent of 25 μg of protein was used for separation on a 10% SDS-PAGE gel and subsequently transferred by standard Western blotting procedures. Antibodies directed to AMPK (Cell Signaling) and phosphorylated AMPK (P-AMPK, Cell Signaling) were used for detection.

Structure (SMILES) | respiratory exchange ratio (RER) (HFD-fed C57BL6/J mice) | energy expenditure (oxygen consumption, VO2) (HFD-fed C57BL6/J mice) | motor learning, latency to fall from rotarod [1] | time spent in open sections of O-maze (risk taking) [2] | respiratory exchange ratio (RER) [3] | energy expenditure (oxygen consumption, VO2) [3] | levels of phosphorylation of AMPK (P-AMPK) [4]
O=C1O[C@H]2[C@@H]3OC(=O)c4cc(O)c(O)c(O)c4-c4c(O)c(O)c5oc(=O)c6c(c(O)c(O)c7oc(=O)c4c5c76)-c4c(cc(O)c(O)c4O)C(=O)OC[C@H]3OC(O)[C@@H]2OC(=O)c2cc(O)c(O)c(O)c2-c2c1cc(O)c(O)c2O (mixture of isomers) [punicalagin, 2,3 hexahydroxydiphenoyl-4,6-gallagylglucose] | significantly decreased RER | increased energy expenditure | restored motor learning skills | reversed and normalized their abnormal excessive risk taking behaviour |  |  | 
O=c1oc2c(O)c(O)cc3c(=O)oc4c(O)c(O)cc1c4c23 [ellagic acid] |  |  |  |  | significantly decreased RER | increased energy expenditure | increased
O=c1oc2cc(O)ccc2c2ccc(O)cc12 [urolithin A, 3,8-Dihydroxydibenzo-α-pyrone] | significantly decreased RER | increased energy expenditure |  |  | significantly decreased RER | increased energy expenditure | increased
